# How the values were obtained:
# [1] = system: Mouse melanoma B16-F10 cells; test: Measurement of cell growth activity (MTT), in vitro growth of B16-F10 cells; format: cell-based; settings: for CI (Combination Index): median effect analysis; for average growth suppression rate ± standard error: MTT
# Procedure: Mouse melanoma B16-F10 cells (the aforementioned) were cultured in MEM supplemented with 2 mM L-glutamine, 1 mM MEM non-essential amino acids, 1% MEM vitamins, 1 mM pyruvic acid and 5% FCS, and the cells were scraped off from the culture flask every 3-4 days with a cell scraper (No. 3010, manufactured by Coaster), diluted 10-fold and maintained by subculture. In the experiment examining the effect of the test substance on the cell growth, the B16-F10 cells maintained in vitro by subculture were recovered with a cell scraper, suspended in MEM supplemented with 10% FCS at 2×10^5 cells/mL and added to a 96 well microtest plate (Becton Dickinson) at 1×10^4 cells/50 μL/well. Furthermore, 50 μL of a test substance at a 2-fold concentration of the final concentration was added to the well, and cultured in a CO2 incubator (MCO-175, SANYO Electric Co., Ltd.) at 37° C., 5% CO2 95% air for 72 hr.
# After culture, 10 mg/mL of MTT [(3-[4,5-Dimethylthiazol-2-yl]-2,5-diphenyl-tetrazolium bromide)] was added at 10 μL/well, which was followed by culture for 3 hr. Thereafter, 100 μL of 10% SDS (sodium dodecylsulfate)—0.01N HCl was added to dissolve the pigment and absorbance at 570 nm was measured with a multilabel counter (1420 ARVO SX, Pharmacia Biotech Corporation). According to the concentration of the test substance, each well was expressed by absorbance, and average value and standard error. Using the well, to which the medium alone was added, as a control, the growth inhibition rate was calculated according to the following formula. [formula] Analysis method: Based on the dose reaction curves of the inventive compound alone treatment group and cisplatin alone treatment group, the combination index (CI) of the action in concomitant use is calculated by median effect analysis (References and [2]). (Results)
# [2] = system: mouse B16-F10 melanoma cultured cells; test: Hematogenous pulmonary metastasis after transplantation of mouse B16-F10 melanoma cultured cells into tail vein; format: in vivo; settings: for CI (Combination Index): Median Effect Analysis, CI below 1 = synergistic
# Procedure: • (1) Preparation of mouse B16-F10 melanoma cultured cells (hereinafter simply B16-F10) B16-F10 cells (a permission to use was obtained from US M.D. Anderson Cancer Center, Dr. I. Fidler and provided for use from Japanese Foundation for cancer research·cancer chemotherapy center, Dr. […] For experiment, B16-F10 cells were suspended in MEM at 5×10^5 cells/mL and 0.2 mL thereof was transferred into the tail vein of 8-week-old male C57BL/6 mice (8 per group). […] Alzet, model 1002, flow rate […], for use for 14 days), and the osmotic pump was intraperitoneally transplanted into the mice one day before the transplantation of B16-F10 cells. • (3) As regards cisplatin, a preparation for injection (product name: Randa injection) was diluted with physiological saline and intraperitoneally administered once the day after transplantation of B16-F10 cells. As regards etoposide, a preparation for injection (product name: […] injection) was diluted with physiological saline and repeatedly administered intraperitoneally once a day for 5 days starting from one day after transplantation of B16-F10 cells. Paclitaxel was purchased from Sigma chemicals Co., suspended in 0.5% metolose solution and repeatedly administered intraperitoneally once every other day (3 times/week for 2 weeks) starting from one day after transplantation of B16-F10 cells. […] In addition, the values of combination index (CI) of the action in concomitant use analyzed by Median Effect Analysis (References and [2]) with regard to the combination group of the compound of the present invention and the anticancer agent are summarized in Table 3 and Table 6.
smiles,measurement,setting,value
"C[C@@H](N)c1ccc(C(=O)Nc2ccncc2)cc1.Cl [compound of the present invention, (R)-(+)-N-(4-pyridyl)-4-(1-aminoethyl)benzamide HCl]",CI (Combination Index),[1]; compound 0.3 μM + cisplatin 10 μM,0.4293
same,CI (Combination Index),[1]; compound 1 μM + cisplatin 10 μM,0.4656
same,CI (Combination Index),[1]; compound 3 μM + cisplatin 10 μM,0.4478
same,CI (Combination Index),[1]; compound 10 μM + cisplatin 10 μM,0.4403
same,CI (Combination Index),[1]; compound 30 μM + cisplatin 10 μM,0.5071
same,CI (Combination Index),[1]; compound 100 μM + cisplatin 10 μM,0.3558
same,average growth suppression rate ± standard error,"[1]; compound 0.1 (no unit in Table 7; μM in Table 8) alone, 72 hr culture",4.389 ± 3.094%
same,average growth suppression rate ± standard error,"[1]; compound 0.3 (no unit in Table 7; μM in Table 8) alone, 72 hr culture",5.196 ± 0.214%
same,average growth suppression rate ± standard error,"[1]; compound 0.3 in combination with cisplatin 10 μM, 72 hr, NS (p = 0.1293) vs. cisplatin (10 μM) alone",17.200 ± 11.245%
same,average growth suppression rate ± standard error,"[1]; compound 1 (no unit in Table 7; μM in Table 8) alone, 72 hr culture",7.877 ± 0.727%
same,average growth suppression rate ± standard error,"[1]; compound 1 in combination with cisplatin 10 μM, 72 hr, NS (P = 0.1236) vs. cisplatin (10 μM) alone",17.319 ± 4.397%
same,average growth suppression rate ± standard error,"[1]; compound 3 (no unit in Table 7; μM in Table 8) alone, 72 hr culture",10.012 ± 1.459%
same,average growth suppression rate ± standard error,"[1]; compound 3 in combination with cisplatin 10 μM, 72 hr, p = 0.0028 vs. cisplatin (10 μM) alone",26.406 ± 8.364%
same,average growth suppression rate ± standard error,"[1]; compound 10 (no unit in Table 7; μM in Table 8) alone, 72 hr culture",10.700 ± 0.365%
same,average growth suppression rate ± standard error,"[1]; compound 10 in combination with cisplatin 10 μM, 72 hr, p = 0.0000 vs. cisplatin (10 μM) alone",43.796 ± 5.446%
same,average growth suppression rate ± standard error,"[1]; compound 30 (no unit in Table 7; μM in Table 8) alone, 72 hr culture",22.657 ± 4.784%
same,average growth suppression rate ± standard error,"[1]; compound 30 in combination with cisplatin 10 μM, 72 hr, p = 0.0000 vs. cisplatin (10 μM) alone",90.320 ± 2.220%
same,average growth suppression rate ± standard error,"[1]; compound 100 (no unit in Table 7; μM in Table 8) alone, 72 hr culture",57.960 ± 8.575%
same,average growth suppression rate ± standard error,"[1]; compound 100 in combination with cisplatin 10 μM, 72 hr, p = 0.0000 vs. cisplatin (10 μM) alone",96.180 ± 0.164%
same,T/C±standard error (average number of pulmonary metastatic colonies of administration group/control group ×100),"[2]; Table 1, compound 1 mg/kg oral administration once a day for 14 days, alone",77.1 ± 10.0%
same,T/C±standard error (average number of pulmonary metastatic colonies of administration group/control group ×100),"[2]; Table 1, compound 1 mg/kg oral once a day for 14 days in combination with cisplatin 5 mg/kg intraperitoneally once",13.4 ± 1.4%
same,T/C±standard error (average number of pulmonary metastatic colonies of administration group/control group ×100),"[2]; Table 1, compound 1 mg/kg oral once a day for 14 days in combination with cisplatin 10 mg/kg intraperitoneally once, p < 0.01 vs. cisplatin (10 mg/kg) alone",19.5 ± 3.0%
same,T/C±standard error (average number of pulmonary metastatic colonies of administration group/control group ×100),"[2]; Table 1, compound 3 mg/kg oral administration once a day for 14 days, alone",65.2 ± 3.7%
same,T/C±standard error (average number of pulmonary metastatic colonies of administration group/control group ×100),"[2]; Table 1, compound 3 mg/kg oral once a day for 14 days in combination with cisplatin 5 mg/kg intraperitoneally once",14.4 ± 2.0%
same,T/C±standard error (average number of pulmonary metastatic colonies of administration group/control group ×100),"[2]; Table 1, compound 3 mg/kg oral once a day for 14 days in combination with cisplatin 10 mg/kg intraperitoneally once, p < 0.01 vs. cisplatin (10 mg/kg) alone",16.5 ± 1.4%
same,T/C±standard error (average number of pulmonary metastatic colonies of administration group/control group ×100),"[2]; Table 2, compound 0.3 mg/kg by intraperitoneal osmotic pump (14 days), alone",73.4 ± 10.1%
same,T/C±standard error (average number of pulmonary metastatic colonies of administration group/control group ×100),"[2]; Table 2, compound 0.3 mg/kg by osmotic pump in combination with cisplatin 10 mg/kg intraperitoneally once",12.1 ± 2.1%
same,T/C±standard error (average number of pulmonary metastatic colonies of administration group/control group ×100),"[2]; Table 2, compound 1 mg/kg by intraperitoneal osmotic pump (14 days), alone",69.9 ± 7.7%
same,T/C±standard error (average number of pulmonary metastatic colonies of administration group/control group ×100),"[2]; Table 2, compound 1 mg/kg by osmotic pump in combination with cisplatin 10 mg/kg intraperitoneally once",13.0 ± 1.8%
same,T/C±standard error (average number of pulmonary metastatic colonies of administration group/control group ×100),"[2]; Table 2, compound 3 mg/kg by intraperitoneal osmotic pump (14 days), alone",63.5 ± 7.7%
same,T/C±standard error (average number of pulmonary metastatic colonies of administration group/control group ×100),"[2]; Table 2, compound 3 mg/kg by osmotic pump in combination with cisplatin 10 mg/kg intraperitoneally once, P < 0.05 vs. cisplatin (10 mg/kg) alone",11.1 ± 1.4%
same,T/C±standard error (average number of pulmonary metastatic colonies of administration group/control group ×100),"[2]; Table 4, compound 1 mg/kg oral administration once a day for 14 days, alone",83.4 ± 10.8%
same,T/C±standard error (average number of pulmonary metastatic colonies of administration group/control group ×100),"[2]; Table 4, compound 1 mg/kg oral in combination with etoposide 5 mg/kg intraperitoneally once a day for 5 days, P < 0.05 vs. etoposide (5 mg/kg) alone",22.0 ± 4.8%
same,T/C±standard error (average number of pulmonary metastatic colonies of administration group/control group ×100),"[2]; Table 4, compound 3 mg/kg oral administration once a day for 14 days, alone",70.5 ± 4.0%
same,T/C±standard error (average number of pulmonary metastatic colonies of administration group/control group ×100),"[2]; Table 4, compound 3 mg/kg oral in combination with etoposide 5 mg/kg intraperitoneally once a day for 5 days, P < 0.01 vs. etoposide (5 mg/kg) alone",19.2 ± 2.8%
same,T/C±standard error (average number of pulmonary metastatic colonies of administration group/control group ×100),"[2]; Table 5, compound 1 mg/kg oral administration once a day for 14 days, alone",69.8 ± 9.0%
same,T/C±standard error (average number of pulmonary metastatic colonies of administration group/control group ×100),"[2]; Table 5, compound 1 mg/kg oral in combination with paclitaxel 5 mg/kg intraperitoneally once every other day, P < 0.05 vs. paclitaxel (5 mg/kg) alone",20.6 ± 2.6%
same,T/C±standard error (average number of pulmonary metastatic colonies of administration group/control group ×100),"[2]; Table 5, compound 3 mg/kg oral administration once a day for 14 days, alone",59.0 ± 3.3%
same,T/C±standard error (average number of pulmonary metastatic colonies of administration group/control group ×100),"[2]; Table 5, compound 3 mg/kg oral in combination with paclitaxel 5 mg/kg intraperitoneally once every other day, P < 0.01 vs. paclitaxel (5 mg/kg) alone",16.3 ± 3.0%
same,number of pulmonary metastatic colonies of B16-F10 cells,"[2]; combination group with cisplatin as compared to the cisplatin alone administration group (p<0.01 or p<0.05, Dunnett's test)",significantly decreased
same,number of pulmonary metastatic colonies of B16-F10 cells,[2]; combination group with etoposide as compared to the etoposide alone administration group (p<0.01 or p<0.05 Dunnett's test),significantly decreased
same,number of pulmonary metastatic colonies of B16-F10 cells,[2]; combination group with paclitaxel as compared to the paclitaxel alone administration group (p<0.01 or p<0.05 Dunnett's test),significantly decreased
same,CI (Combination Index),[2]; compound 0.3 mg/kg osmotic pump + cisplatin 10 mg/kg,0.19
same,CI (Combination Index),[2]; compound 1 mg/kg oral + Etoposide (5 mg/kg),0.42
same,CI (Combination Index),[2]; compound 1 mg/kg oral + Paclitaxel (5 mg/kg),0.63
same,CI (Combination Index),[2]; compound 1 mg/kg oral administration + cisplatin 10 mg/kg,0.12
same,CI (Combination Index),[2]; compound 1 mg/kg osmotic pump + cisplatin 10 mg/kg,0.21
same,CI (Combination Index),[2]; compound 3 mg/kg oral + Etoposide (5 mg/kg),0.34
same,CI (Combination Index),[2]; compound 3 mg/kg oral + Paclitaxel (5 mg/kg),0.34
same,CI (Combination Index),[2]; compound 3 mg/kg oral administration + cisplatin 10 mg/kg,0.09
same,CI (Combination Index),[2]; compound 3 mg/kg osmotic pump + cisplatin 10 mg/kg,0.17
same,CI value of the action in concomitant use,"[2]; compound and cisplatin used in combination, every dose (Table 3)",lower than 1
same,combination index of the action in concomitant use,[2]; compound and etoposide used in combination (Table 6),lower than 1
same,combination index of the action in concomitant use,[2]; compound and paclitaxel used in combination (Table 6),lower than 1

# Source: US6930115B2, “Antitumor effect potentiators” (Mitsubishi Pharma Corporation, priority 2000, dated 2005)
